Tested on: microtubule network in PC-3 cells
Experiment: Immunofluorescence assay of microtubule network
Format: cell-based, human
Details: 50 nM, 24 h
Procedure: To evaluate the effects of 4k and 5a on intracellular microtubule, immunofluorescence assay was carried out to observe the changes of microtubule network in cell.
PC-3 cells in logarithmic phase were harvested and seeded onto 12-well cell plates with round coverslip on the bottom of each well at a density of 3 × 10^4 cells per well, and were cultured for 24 h. […] The medium was removed, and cells were washed with PBS twice, fixed with 4% formaldehyde in PBS for 30 min, then the solution was removed. Cells were washed with PBS twice, permeabilized with 0.2% (v/v) Triton X-100 in PBS for 30 min, then the solution was removed. Cells were washed with PBS twice, blocking the cells in 5% bovine serum albumin (BSA) for 30 min. Then BSA was removed, and cells were incubated with the primary α-tubulin antibody (Santa Cruz, CA) containing 2% BSA (v/v, 1: 100) overnight at 4 °C.
The following steps were operated in dark environment. The antibody was removed, then cells were washed with PBST twice and were added FITC-conjugated anti-mouse secondary antibody diluted (1:100) with 2% BSA in PBS and incubated at room temperature for 4 h. The cells were then washed with PBST twice, stained with 4′,6-diamidino-2-phenylindole (DAPI) for 30 min at room temperature, and washed with PBS twice. The round coverslips at the bottom of wells were taken out, and the images were photographed by a confocal microscope.

| SMILES | effect on microtubule network |
| --- | --- |
| COc1cc(C(=O)c2nn(-c3ccc(N)cc3)cc2N)cc(OC)c1OC [4k, (4-amino-1–(4-aminophenyl)-1H-pyrazol-3-yl)(3,4,5-trimethoxyphenyl)methanone] | microtubule network was destroyed |
| COc1cc(C2=NCC(=O)Nc3cn(-c4ccccc4)nc32)cc(OC)c1OC [5a, 2-Phenyl-8–(3,4,5-trimethoxyphenyl)-2,6-dihydropyrazolo[4,3-e][1,4]diazepin-5(4H)-one] | microtubule network was destroyed |
